The text below walks through data of ChEMBL document CHEMBL1201862, “PubChem BioAssay data set” (2004).

The target of experiment [1] is T1, Oxysterols receptor LXR-beta (Homo sapiens, UniProt P55055).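 Note: agonist activity at LXR measured by a cell-based luminescence readout across a dose range, run as a counterscreen for daf-12 agonists; HEK293 cells with Gal4-LXR fusion and GAL4-driven luciferase reporter; potency for activation of Gal4-LXR reporter so compounds are agonists.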
T1 sequence (P55055 whole entry): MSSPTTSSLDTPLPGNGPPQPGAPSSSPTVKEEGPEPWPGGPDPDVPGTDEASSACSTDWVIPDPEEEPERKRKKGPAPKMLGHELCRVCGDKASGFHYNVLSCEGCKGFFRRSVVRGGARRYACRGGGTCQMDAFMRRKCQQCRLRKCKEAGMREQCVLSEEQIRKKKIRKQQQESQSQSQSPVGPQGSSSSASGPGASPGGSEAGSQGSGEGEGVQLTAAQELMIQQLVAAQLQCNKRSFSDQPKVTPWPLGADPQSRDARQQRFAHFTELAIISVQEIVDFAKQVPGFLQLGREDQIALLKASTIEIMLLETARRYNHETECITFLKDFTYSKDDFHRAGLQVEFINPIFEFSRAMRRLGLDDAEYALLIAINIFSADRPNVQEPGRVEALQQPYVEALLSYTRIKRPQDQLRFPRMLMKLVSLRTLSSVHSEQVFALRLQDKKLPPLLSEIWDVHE
Format: functional, cell-based.

The next experiment concerns the target T2, Leucine aminopeptidase (Plasmodium falciparum 3D7, UniProt Q8IL11).
T2 sequence (Q8IL11 whole entry): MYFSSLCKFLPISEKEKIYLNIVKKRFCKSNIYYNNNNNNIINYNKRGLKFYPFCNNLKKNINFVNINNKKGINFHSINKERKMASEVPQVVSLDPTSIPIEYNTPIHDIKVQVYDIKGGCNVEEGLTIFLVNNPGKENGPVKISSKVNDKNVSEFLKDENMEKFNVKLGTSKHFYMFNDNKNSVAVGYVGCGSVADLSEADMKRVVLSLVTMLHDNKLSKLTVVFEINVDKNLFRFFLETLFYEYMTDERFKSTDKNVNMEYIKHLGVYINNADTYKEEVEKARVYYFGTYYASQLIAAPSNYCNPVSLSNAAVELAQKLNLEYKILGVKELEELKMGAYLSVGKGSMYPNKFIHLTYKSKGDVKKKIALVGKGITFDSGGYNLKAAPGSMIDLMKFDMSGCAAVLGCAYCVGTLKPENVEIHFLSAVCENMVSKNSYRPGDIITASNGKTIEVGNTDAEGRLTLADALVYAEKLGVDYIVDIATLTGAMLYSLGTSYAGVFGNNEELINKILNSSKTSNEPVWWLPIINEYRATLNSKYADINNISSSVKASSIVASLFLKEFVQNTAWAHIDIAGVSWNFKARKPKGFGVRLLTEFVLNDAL
Put plainly: P. falciparum M17LAP inhibitors, primary screen, biochemical, fluorogenic H-Leu-NHMec substrate, 1536-well (AID 1619). In kind it is functional.

Experiment [2] addresses Peroxisome proliferator-activated receptor gamma/Nuclear receptor coactivator 2 (Homo sapiens, UniProt P37231). Format: functional.
The next experiment concerns the target Ion channel NompC (Danio rerio, UniProt Q7T1G6). Briefly: Fluorescence counterscreen assay for TRPML3 agonists: dose response cell-based high-throughput screening assay to identify agonists of the transient receptor potential channel N1 (TRPN1). [Related pubchem assays: 1526, 1424, 1448 ]. In kind it is functional.
A further experiment deals with Mucolipin-3 (Homo sapiens, UniProt Q8TDD5). Put plainly: Dose response cell-based high-throughput screening assay for agonists of the transient receptor potential channel ML3 (TRPML3). [Related pubchem assays: 1526, 1424, 1448 ]. Format: functional.
Experiment [3] deals with Peroxisome proliferator-activated receptor gamma/Nuclear receptor coactivator 1 (Homo sapiens, UniProt P37231). Format: functional.
Experiment [4] deals with Peroxisome proliferator-activated receptor gamma/Nuclear receptor coactivator 3 (Homo sapiens, UniProt P37231). In kind it is functional.
Peroxisome proliferator-activated receptor gamma/Nuclear receptor coactivator 3, sequence (P37231 whole entry): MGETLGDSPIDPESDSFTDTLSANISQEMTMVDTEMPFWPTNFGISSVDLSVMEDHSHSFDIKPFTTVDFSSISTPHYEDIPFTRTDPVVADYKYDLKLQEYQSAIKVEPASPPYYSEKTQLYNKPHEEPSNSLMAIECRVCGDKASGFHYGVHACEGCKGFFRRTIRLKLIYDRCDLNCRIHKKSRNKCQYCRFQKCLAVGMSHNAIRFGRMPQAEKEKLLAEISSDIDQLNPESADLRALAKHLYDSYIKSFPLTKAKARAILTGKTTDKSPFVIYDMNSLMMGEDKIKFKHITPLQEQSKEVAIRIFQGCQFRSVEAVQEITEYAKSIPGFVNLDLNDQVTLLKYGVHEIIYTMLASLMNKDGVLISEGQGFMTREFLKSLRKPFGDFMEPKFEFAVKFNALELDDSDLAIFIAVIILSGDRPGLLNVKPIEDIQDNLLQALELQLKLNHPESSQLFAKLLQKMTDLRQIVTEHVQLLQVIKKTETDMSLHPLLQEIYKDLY
Peroxisome proliferator-activated receptor gamma/Nuclear receptor coactivator 3, sequence (Q9Y6Q9 whole entry, further chain): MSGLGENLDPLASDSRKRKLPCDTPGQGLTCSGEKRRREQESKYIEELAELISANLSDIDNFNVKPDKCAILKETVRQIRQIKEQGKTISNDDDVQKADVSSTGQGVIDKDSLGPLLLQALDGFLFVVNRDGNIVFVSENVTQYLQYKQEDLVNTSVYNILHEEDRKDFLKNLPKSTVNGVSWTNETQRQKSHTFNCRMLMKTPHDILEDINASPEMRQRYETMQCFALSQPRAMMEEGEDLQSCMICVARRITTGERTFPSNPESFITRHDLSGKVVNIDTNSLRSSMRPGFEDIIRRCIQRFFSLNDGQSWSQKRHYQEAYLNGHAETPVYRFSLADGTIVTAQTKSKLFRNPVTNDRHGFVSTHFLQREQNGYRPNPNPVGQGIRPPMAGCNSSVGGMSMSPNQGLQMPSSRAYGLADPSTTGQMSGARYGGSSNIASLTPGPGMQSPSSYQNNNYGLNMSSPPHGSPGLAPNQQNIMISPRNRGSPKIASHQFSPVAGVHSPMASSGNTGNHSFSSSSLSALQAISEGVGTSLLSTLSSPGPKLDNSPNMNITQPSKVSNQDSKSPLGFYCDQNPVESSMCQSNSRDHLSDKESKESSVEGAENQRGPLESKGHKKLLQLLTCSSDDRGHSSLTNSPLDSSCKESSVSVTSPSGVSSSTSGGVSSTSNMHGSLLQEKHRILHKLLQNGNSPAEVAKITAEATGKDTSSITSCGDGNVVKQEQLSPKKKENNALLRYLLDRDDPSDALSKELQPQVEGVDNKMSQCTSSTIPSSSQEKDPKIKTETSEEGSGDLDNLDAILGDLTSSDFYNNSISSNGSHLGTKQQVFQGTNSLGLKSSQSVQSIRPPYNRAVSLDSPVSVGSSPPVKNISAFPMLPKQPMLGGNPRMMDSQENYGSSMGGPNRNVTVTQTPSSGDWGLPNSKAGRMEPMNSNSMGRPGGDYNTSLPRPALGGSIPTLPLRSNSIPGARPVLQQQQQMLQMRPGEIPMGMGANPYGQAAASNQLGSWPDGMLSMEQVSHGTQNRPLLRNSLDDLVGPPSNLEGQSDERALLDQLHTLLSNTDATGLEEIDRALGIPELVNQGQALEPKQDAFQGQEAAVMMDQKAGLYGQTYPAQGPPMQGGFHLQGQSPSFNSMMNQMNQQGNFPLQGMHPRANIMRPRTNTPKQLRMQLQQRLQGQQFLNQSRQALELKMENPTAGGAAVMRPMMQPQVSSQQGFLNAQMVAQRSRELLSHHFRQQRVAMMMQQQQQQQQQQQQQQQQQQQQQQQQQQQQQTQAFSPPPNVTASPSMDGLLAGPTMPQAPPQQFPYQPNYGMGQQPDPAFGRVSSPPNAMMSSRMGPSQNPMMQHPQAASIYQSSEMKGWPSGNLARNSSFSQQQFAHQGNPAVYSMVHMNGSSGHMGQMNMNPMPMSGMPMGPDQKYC
For the next experiment, the system named is Streptococcus. Briefly: GAS UMAA2166 growth inhibition – luminescence, BacTiterGlo, counter-screen for streptokinase expression inhibitor project, dose response (AID 1915).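 Note: potency for reduction of bacterial viability or growth.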 Format: functional, organism-based.
For experiment [5], the target named is Disintegrin and metalloproteinase domain-containing protein 17 (Homo sapiens, UniProt P78536). Briefly: exosite inhibitors of ADAM17, dose response, biochemical (AID 743260).
Another experiment addresses T3, Streptokinase A (Streptococcus pyogenes serotype M1, UniProt P10520).
T3 sequence (P10520 whole entry): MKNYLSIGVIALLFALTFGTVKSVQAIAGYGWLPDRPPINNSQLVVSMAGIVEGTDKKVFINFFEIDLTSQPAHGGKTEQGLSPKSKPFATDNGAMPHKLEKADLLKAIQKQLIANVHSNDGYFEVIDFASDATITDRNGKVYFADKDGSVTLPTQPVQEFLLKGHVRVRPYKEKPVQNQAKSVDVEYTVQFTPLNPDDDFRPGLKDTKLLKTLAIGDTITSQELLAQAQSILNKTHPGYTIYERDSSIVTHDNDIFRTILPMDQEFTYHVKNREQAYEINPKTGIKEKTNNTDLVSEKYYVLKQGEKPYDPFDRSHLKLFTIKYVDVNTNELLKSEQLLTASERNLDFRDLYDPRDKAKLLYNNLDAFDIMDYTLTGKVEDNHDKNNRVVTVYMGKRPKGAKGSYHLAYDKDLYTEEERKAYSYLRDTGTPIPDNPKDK
Put plainly: viability-normalized secreted streptokinase activity reduction – plasminogen activation absorbance, OD405, dose response (AID 1914).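 Note: secreted streptokinase activity via plasminogen activation per viability signal from cell pellet.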 In kind it is functional, Streptococcus pyogenes M1 GAS.

In experiment [6] the test system is Streptococcus sp. 'group A'. Put plainly: Streptococcus pyogenes SK(-)GAS viability under kanamycin – luminescence, BacTiterGlo, confirmation, counter-screen for streptokinase expression inhibitor project, dose response (AID 1900). Format: functional, organism-based.
For a further experiment, the target named is T4, Protein RecA (Mycobacterium tuberculosis, UniProt P9WHJ3).
T4 sequence (P9WHJ3 whole entry): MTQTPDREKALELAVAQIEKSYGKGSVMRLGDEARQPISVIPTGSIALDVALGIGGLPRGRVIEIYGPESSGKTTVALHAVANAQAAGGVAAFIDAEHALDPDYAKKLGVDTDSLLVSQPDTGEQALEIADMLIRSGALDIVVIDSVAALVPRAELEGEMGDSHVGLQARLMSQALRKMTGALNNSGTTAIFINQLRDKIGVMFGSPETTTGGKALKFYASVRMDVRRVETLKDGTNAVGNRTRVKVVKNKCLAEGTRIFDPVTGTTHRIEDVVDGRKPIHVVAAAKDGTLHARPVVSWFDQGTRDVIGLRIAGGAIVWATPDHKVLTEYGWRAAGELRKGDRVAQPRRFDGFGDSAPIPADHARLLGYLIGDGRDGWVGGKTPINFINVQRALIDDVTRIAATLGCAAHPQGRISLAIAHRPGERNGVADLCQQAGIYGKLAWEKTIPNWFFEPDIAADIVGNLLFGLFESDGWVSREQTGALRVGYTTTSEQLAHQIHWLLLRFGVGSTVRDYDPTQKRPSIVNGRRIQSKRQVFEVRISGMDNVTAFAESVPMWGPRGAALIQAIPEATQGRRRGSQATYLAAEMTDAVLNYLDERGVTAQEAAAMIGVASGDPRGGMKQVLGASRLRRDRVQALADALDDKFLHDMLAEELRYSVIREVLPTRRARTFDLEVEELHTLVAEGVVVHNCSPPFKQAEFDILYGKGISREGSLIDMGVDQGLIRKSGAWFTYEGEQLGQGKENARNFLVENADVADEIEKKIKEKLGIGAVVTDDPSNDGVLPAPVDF
Put plainly: Fluorescence Cell-Free Homogeneous Dose Retest to Identify Inhibitors of RecA-Intein Splicing Activity. [Related pubchem assays (depositor defined):AID2097, AID2223, AID489010, AID492950]. Format: functional.

A further experiment deals with Nonstructural protein 1 (Influenza A virus, UniProt Q194T2). Format: functional, Influenza A virus (A/California/07/2009(H1N1)).
The target in another experiment is fMet-Leu-Phe receptor (Homo sapiens, UniProt P21462). Put plainly: formyl peptide receptor binders – dose response (AID 519). Format: functional.
The target in experiment [7] is T5, Replicative DNA helicase DnaB (Mycobacterium tuberculosis, UniProt P9WMR3).
T5 sequence (P9WMR3 whole entry): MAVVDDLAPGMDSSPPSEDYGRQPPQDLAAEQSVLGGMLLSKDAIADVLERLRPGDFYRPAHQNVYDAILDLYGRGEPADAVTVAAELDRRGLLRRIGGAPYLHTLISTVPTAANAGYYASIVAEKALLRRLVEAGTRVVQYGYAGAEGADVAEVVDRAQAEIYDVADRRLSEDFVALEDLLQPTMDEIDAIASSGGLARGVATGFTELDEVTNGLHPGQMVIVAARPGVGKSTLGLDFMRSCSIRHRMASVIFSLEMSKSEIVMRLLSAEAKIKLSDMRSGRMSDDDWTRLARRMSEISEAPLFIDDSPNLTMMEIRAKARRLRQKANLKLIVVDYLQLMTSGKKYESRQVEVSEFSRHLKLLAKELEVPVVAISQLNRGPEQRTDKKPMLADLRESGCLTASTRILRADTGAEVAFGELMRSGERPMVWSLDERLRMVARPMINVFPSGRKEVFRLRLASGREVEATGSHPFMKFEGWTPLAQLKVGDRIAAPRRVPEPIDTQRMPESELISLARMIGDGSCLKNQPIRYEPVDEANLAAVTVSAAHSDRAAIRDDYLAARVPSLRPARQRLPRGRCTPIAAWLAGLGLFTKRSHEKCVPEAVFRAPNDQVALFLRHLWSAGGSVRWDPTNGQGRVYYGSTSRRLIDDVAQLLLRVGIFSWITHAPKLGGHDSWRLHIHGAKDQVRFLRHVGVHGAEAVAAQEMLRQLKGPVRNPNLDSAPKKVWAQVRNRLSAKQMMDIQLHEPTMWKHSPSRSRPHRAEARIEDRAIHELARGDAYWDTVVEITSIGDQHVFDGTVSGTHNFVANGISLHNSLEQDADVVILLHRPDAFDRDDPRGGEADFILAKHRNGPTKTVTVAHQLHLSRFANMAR
Briefly: DnaB intein splicing inhibitors, dose response, biochemical, cell-free fluorescence (AID 449749). Format: functional.

The nature of experiment [8]: Late stage assay provider results from the probe development effort to identify selective inhibitors of heat shock protein 90 (HSP90): Absorbance-based cell proliferation assay in SKBR3 cells. In kind it is functional. Particulars: SK-BR-3.
A short description of experiment [9]: Late stage assay provider results from the probe development effort to identify selective inhibitors of heat shock protein 90 (HSP90): Absorbance-based cell proliferation assay in MCF7 cells. In kind it is functional.
The target of experiment [10] is Metabotropic glutamate receptor 5 (Rattus norvegicus, UniProt P31424). Put plainly: Identification of a glycine sulfonamide based non-MPEP site positive allosteric potentiator (PAM) of mGlu5 (calcium_assay). In kind it is functional.
Metabotropic glutamate receptor 5, sequence (P31424 whole entry): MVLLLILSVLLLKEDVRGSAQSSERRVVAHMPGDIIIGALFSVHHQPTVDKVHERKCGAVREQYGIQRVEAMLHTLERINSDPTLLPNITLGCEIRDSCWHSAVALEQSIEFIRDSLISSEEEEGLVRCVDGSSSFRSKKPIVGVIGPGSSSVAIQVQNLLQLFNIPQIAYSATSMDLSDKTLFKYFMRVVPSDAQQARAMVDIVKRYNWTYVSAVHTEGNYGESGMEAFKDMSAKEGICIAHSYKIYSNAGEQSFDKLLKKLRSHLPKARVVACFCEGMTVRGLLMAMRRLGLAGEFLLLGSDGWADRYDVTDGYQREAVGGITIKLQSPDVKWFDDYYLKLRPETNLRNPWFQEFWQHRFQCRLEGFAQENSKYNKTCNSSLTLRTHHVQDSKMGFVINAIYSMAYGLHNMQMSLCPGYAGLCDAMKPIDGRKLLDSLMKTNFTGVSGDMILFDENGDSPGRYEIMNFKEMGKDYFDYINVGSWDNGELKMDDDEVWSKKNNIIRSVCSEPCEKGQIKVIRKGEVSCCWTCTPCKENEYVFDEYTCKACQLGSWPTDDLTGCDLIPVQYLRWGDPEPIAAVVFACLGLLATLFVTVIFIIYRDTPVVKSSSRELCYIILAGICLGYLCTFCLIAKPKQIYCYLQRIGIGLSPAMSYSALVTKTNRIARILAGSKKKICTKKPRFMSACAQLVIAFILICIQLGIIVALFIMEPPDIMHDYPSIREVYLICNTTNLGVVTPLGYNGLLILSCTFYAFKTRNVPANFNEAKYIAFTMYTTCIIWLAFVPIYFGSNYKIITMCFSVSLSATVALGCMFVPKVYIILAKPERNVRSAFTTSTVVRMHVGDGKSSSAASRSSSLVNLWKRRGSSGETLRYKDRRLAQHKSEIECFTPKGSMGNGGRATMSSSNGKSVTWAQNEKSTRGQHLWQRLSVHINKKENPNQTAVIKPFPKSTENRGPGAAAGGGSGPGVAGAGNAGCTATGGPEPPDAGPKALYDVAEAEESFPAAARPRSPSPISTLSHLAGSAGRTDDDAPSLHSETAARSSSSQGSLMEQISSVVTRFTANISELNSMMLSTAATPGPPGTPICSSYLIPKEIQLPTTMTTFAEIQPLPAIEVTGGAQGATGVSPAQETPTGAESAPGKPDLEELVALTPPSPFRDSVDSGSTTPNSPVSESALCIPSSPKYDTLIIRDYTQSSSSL

pEC50: −log10 of the molar value. Calls of active or inactive are those of the source.

Peroxisome proliferator-activated receptor gamma/Nuclear receptor coactivator 2, sequence (P37231 whole entry): as the sequence (P37231 whole entry) above
Peroxisome proliferator-activated receptor gamma/Nuclear receptor coactivator 2, sequence (Q15596 whole entry, further chain): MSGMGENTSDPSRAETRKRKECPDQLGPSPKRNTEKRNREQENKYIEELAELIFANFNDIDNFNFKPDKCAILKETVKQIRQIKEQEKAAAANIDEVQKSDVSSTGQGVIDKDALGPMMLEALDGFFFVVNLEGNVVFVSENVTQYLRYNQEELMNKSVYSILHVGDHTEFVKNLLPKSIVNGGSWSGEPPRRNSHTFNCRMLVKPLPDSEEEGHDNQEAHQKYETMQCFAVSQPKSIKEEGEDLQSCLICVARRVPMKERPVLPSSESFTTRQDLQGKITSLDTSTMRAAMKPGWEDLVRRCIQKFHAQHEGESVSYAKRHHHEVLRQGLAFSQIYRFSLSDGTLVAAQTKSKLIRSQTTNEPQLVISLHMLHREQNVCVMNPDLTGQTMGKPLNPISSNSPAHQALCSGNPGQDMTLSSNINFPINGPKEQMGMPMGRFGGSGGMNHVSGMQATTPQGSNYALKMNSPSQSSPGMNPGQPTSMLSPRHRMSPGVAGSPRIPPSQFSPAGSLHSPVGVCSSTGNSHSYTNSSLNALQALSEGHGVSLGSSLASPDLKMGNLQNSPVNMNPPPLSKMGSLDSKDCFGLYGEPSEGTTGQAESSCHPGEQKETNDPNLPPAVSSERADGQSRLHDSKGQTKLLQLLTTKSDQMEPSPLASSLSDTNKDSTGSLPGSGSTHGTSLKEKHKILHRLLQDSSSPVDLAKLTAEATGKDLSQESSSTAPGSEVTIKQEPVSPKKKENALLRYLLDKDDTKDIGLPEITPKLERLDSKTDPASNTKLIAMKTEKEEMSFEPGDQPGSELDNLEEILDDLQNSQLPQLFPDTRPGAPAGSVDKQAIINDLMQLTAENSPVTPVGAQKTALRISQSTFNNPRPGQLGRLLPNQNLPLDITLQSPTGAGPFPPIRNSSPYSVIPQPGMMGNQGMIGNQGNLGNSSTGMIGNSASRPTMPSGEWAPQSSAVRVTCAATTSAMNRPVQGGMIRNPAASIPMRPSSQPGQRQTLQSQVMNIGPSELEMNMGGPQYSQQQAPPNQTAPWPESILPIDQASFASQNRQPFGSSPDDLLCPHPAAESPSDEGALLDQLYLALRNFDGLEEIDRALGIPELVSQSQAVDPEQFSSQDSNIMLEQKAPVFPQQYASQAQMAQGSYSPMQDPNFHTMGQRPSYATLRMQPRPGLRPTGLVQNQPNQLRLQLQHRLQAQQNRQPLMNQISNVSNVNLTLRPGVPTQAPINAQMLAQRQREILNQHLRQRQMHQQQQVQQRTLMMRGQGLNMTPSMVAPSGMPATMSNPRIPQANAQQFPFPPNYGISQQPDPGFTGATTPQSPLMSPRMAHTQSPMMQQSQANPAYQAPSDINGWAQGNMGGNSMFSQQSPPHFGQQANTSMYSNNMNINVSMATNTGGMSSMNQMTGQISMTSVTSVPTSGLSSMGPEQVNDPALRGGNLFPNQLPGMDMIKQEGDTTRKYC

As for `C=CCN1C=CC(=C/C=C(/C#N)C(=O)OCC)C=C1`, the EC50 is > 67.5 µM (inactive) in experiment [1]; > 79.4 µM (not active) in experiment [2]; 6.09 µM (active) on Ion channel NompC; 15.3 µM (not active) on Mucolipin-3; > 79.4 µM (not active) in [3]; > 79.4 µM (not active) in [4]. The IC50 at Leucine aminopeptidase was 72.5 µM (active).

Turning to `Cc1cc(SCC(=O)c2ccc(O)c(O)c2)n2nc(C)c(-c3ccccc3)c2n1`, the EC50 is 13.9 µM (active) in the experiment with Streptococcus, > 150 µM (not active) on Streptokinase A and 7.32 µM (active) in experiment [6]. In addition, the IC50 in experiment [5] is > 69.5 µM (inactive).

With `Nc1ccc(Nc2ccccc2N)cc1`, the EC50 at Protein RecA is 6.86 µM (active). The IC50 on Nonstructural protein 1 is 8.33 µM (active). The Ki on fMet-Leu-Phe receptor was > 66.7 µM (inactive). Besides, the AC50 in experiment [7] is 17.9 µM (active).

Turning to `CC(=O)c1ccc(NC(=O)c2ccc(=O)oc2)cc1`, the IC50 in [8] and in experiment [9] was > 100 µM (inactive) in each case.

`CS(=O)(=O)N(CC(=O)Nc1ccccn1)c1cc(C(F)(F)F)ccc1Cl`: in experiment [10], the pEC50 was 7.07.
